“And” between values parts separate entries of the source, which are not always exact repeats. Equal entries are not always repeated.

This is an account of results in paper PMC5554444 (Cancer prevention research (Philadelphia, Pa.), 2011).

The subject of data set [1] is HL-60 cells. The data set is described as follows: Expression of cell surface marker CD38 by flow cytometry. The data set is classed as cell-based, human.
In data set [2] the test system is MCF7 cells. The data set is described as follows: RT2 Profiler PCR array of 84 human cell cycle genes. The data set is classed as cell-based.
The test system of data set [3] is MCF7 breast cancer cells. As to the kind of experiment: SRB assay, anti-proliferative potential. The data set is classed as cell-based. The conditions noted are these: Homo sapiens, MCF7, 72 h, read-out: SRB assay IC50.
Data set [4] has as its system MCF7 cells. The data set is described as follows: Cell cycle distribution by NIM-DAPI flow cytometry. The format is cell-based, human. The conditions noted are these: 2.5 μM.
For data set [5], the system named is MCF7 cells. The data set is described as follows: Western blot of p53 and p21 protein. The format is cell-based, human. The conditions noted are these: 1 μM, 8, 24 and 48 h.
The nature of data set [6]: Caco-2 cell monolayer permeability. The following applies: human, Caco-2, pH 7.4. The data set is classed as in vitro ADME.
For data set [7], the system named is Caco-2 cell monolayer. The data set is described as follows: Caco-2 cell monolayer permeability. The data set is classed as in vitro ADME. The conditions noted are these: Caco-2.
A short description of data set [8]: Absorption and distribution in rats after gavage. The data set is classed as in vivo, rat. The conditions noted are these: 40 mg/kg by gavage, 3 h after first treatment, individual rats; listed as AM6-36.
Data set [9] deals with MNU-induced mammary tumors. The data set is described as follows: MNU-induced mammary tumor growth in Sprague-Dawley rats. The data set is classed as in vivo, rat. The conditions noted are these: 10 mg/kg BW/day, six weeks, 10 rats/group, p = 0.1 Mann-Whitney.
Data set [10] deals with T1, human RXRα (Homo sapiens, UniProt P19793).
T1 sequence (P19793 1-462): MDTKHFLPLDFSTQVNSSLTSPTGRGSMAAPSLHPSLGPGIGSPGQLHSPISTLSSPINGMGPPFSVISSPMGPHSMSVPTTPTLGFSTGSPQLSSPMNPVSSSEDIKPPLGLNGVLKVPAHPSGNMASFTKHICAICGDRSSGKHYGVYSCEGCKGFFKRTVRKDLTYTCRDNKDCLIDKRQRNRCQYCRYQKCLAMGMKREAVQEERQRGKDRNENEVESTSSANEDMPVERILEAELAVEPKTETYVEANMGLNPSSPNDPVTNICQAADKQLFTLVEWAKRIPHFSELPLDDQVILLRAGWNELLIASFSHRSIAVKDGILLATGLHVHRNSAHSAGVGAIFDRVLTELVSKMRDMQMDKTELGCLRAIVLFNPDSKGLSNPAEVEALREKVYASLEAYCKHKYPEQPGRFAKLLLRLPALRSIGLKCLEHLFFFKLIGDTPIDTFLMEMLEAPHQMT
The conditions noted are these: COS-1 cells, 24 h.

For `CC1=C(/C=C/C(C)=C\C=C\C(C)=C\C(=O)O)C(C)(C)CCC1` [Compound 9-cis-RA, 9-cis-Retinoic acid], the “FL-1 positive cells (CD38)” value in data set [1] (HL-60 cells, 2 nM) stood at 86.7%. For the same molecule, the “CD38-expressing cell population (FL-1 positive)” value in [1] (HL-60 cells, 2000, 200, 20 nM) was “about 95%”.

Consider `C=C(c1ccc(C(=O)O)cc1)c1cc2c(cc1C)C(C)(C)CCC2(C)C` [Bexarotene, reference compound], for which, in data set [2] (24 h, AM6-36 1 μM, bexarotene 100 μM, P <0.05), the “Number of genes out of 84 with significantly altered expression” value is reported as 9.

As to `CC[C@@]1(O)C(=O)OCc2c1cc1n(c2=O)Cc2cc3ccccc3nc2-1` [Camptothecin], the IC50 in data set [3] was 1.41 nM.

Take `Cl.Cl.NCCCn1c2c(c3ccc(N)cc3c1=O)C(=O)c1ccccc1-2` [Compound 3, 3-amino-6-(3-aminopropyl)-5,6-dihydro-5,11-dioxo-11H-indeno[1,2-c]isoquinoline dihydrochloride]: the Cell cycle distribution result in [4] is listed as “S phase arrest”. The “Up-regulation of CDKN1A expression” value in [2] (DNA microarray analysis) was determined as 35 fold. Moreover, in [5], the p21 protein expression entry was “moderate increase at 8 h, and incremental expression was observed at 24 and 48 h”; the p53 protein level result was “increase of p53 at 8 h, followed by decreases at 24 and 48 h”. In addition, in [6], the Papp A→B at 5 µM was 2.75 ± 0.78 ×10⁻⁶ cm/s, the Papp A→B at 10 µM came out at 5.52 ± 0.29 ×10⁻⁶ cm/s, the Papp A→B at 25 µM came out at 4.45 ± 0.71 ×10⁻⁶ cm/s and the Papp B→A at 5 µM came out at 3.95 ± 0.11 ×10⁻⁶ cm/s. Also, in [6], the Papp B→A at 10 µM stood at 3.25 ± 0.71 ×10⁻⁶ cm/s and the Papp B→A at 25 µM turned out to be 8.26 ± 0.93 ×10⁻⁶ cm/s. Besides, the “Papp AP to BL, times slower than propranolol” value in data set [7] came out at 10 fold. Also, in data set [8], the “Serum 1-day” value is 0.84 ± 0.01 μg/ml and 2.14 μM and 0.82 ± 0.004 μg/ml and 2.09 μM. For the same molecule, the “Growth of MNU-induced mammary tumors” value in [9] was “clearly attenuated tumor growth”. For the same molecule, in [10] (20 μM), the “Relative luciferase activity induction” value stood at 133.2 fold. Besides, the “RXRE assay, fold increase of relative luciferase activity over vehicle” value in [10] (40 μM) turned out to be 5.49±0.34 fold.
